pIC50: −log10 of the molar value. Where a name gives a salt, the structure may show the parent alone.
system: HCT 116 cells; test: CellTiter-Glo Luminescent Cell Viability Assay in HCT 116 cells; assay type: cell-based; settings: Homo sapiens, HCT-116, 120 h, HCT 116 human colon carcinoma cell viability, 120 h (5 days) incubation, 10 concentrations 30 μM to 0.0015 μM, triplicate
Source text: CellTiter-Glo™ Assay in HCT 116 Cells
The CellTiter-Glo™ Luminescent Cell Viability Assay (Promega) is a homogeneous method of determining the number of viable cells in culture based on quantitation of the ATP present, which signals the presence of metabolically active cells.
HCT 116 cells (human colon carcinoma, ATCC-No. CCl1-247) were cultivated in RPMI 1640 medium with GlutaMAX™ I (Invitrogen, Cat-No. 61870-010), 2.5% Fetal Calf Serum (FCS, Sigma Cat-No. F4135 (FBS)); 100 Units/ml penicillin/100 μg/ml streptomycin (=Pen/Strep from Invitrogen Cat. No. 15140). For the assay the cells were seeded in 384 well plates, 1000 cells per well, in the same medium. The next day the test compounds were added in various concentrations ranging from 30 μM to 0.0015 μM (10 concentrations, 1:3 diluted). After 5 days the CellTiter-Glo™ assay was done according to the instructions of the manufacturer (CellTiter-Glo™ Luminescent Cell Viability Assay, from Promega). In brief: the cell-plate was equilibrated to room temperature for approximately 30 minutes and than the CellTiter-Glo™ reagent was added. The contents were carefully mixed for 15 minutes to induce cell lysis. After 45 minutes the luminescent signal was measured in Victor 2, (scanning multiwell spectrophotometer, Wallac).
Medium: RPMI 1640 with GlutaMAX™ I (Invitrogen, Cat-Nr. 61870), 5% FCS (Sigma Cat.-No. F4135), Pen/Strep (Invitrogen, Cat No. 15140).
HCT116 (ATCC-No. CCl-247): 1000 cells in 60 μl per well of 384 well plate (Greiner 781098, μClear-plate white)
After seeding incubate plates 24 h at 37° C., 5% CO2
2nd. Day: Induction (Treatment with Compounds, 10 Concentrations):
In order to achieve a final concentration of 30 μM as highest concentration 3,5 μl of 10 mM compound stock solution were added directly to 163 μl media. Then step e) of the dilution procedure described below, was followed.
In order to achieve the second highest to the lowest concentrations, a serial dilution with dilution steps of 1:3 was followed according to the procedure (a–e) as described here below: • a) for the second highest concentration add 10 μl of 10 mM stock solution of compound to 20 μl dimethylsulfoxide (DMSO) • b) dilute 8×1:3 (always 10 μl to 20 μl DMSO) in this DMSO dilution row (results in 9 wells with concentrations from 3333.3 μM to 0.51 μM) • c) dilute each concentration 1: 47.6 (3.5 μl compound dilution to 163 μl media) • e) add 10 μl of every concentration to 60 μl media in the cell plate resulting in final concentration of DMSO : 0.3% in every well and resulting in 10 final concentration of compounds ranging from 30 μM to 0.0015 μM. • Each compound is tested in triplicate. • Incubate 120 h (5 days) at 37° C., 5% CO2
Analysis: • Add 30 μl CellTiter-Glo™ Reagent per well, • shake 15 minutes at room temperature • incubate further 45 minutes at room temperature without shaking
Measurement: • Victor 2 scanning multiwell spectrophotometer (Wallac), Luminescence mode (0.5 sec/read, 477 nm) • Determine IC50 using a non-linear curve fit (XLfit software (ID Business Solution Ltd., Guilford, Surrey, UK))

pIC50 | SMILES
4.82 to 6.30 | O=C(NS(=O)(=O)/C=C/c1cccnc1)c1ccc(Br)cc1Cl [Example 4-11, (E)-2-Pyridin-3-yl-ethenesulfonic acid 4-bromo-2-chloro-benzoylamide; sodium salt]
4.82 to 6.30 | O=C(NS(=O)(=O)/C=C/c1ccccn1)c1ccc(Br)cc1Cl [Example 4-7, (E)-2-Pyridin-2-yl-ethenesulfonic acid 4-bromo-2-chloro-benzoylamide; sodium salt]
5.30 | COc1ccc(/C=C/S(=O)(=O)NC(=O)c2ccc(Cl)cc2Cl)cn1 [Example 2-4, (E)-2-(6-Methoxy-pyridin-3-yl)-ethenesulfonic acid 2,4-dichloro-benzoylamide; sodium salt]
4.82 to 6.30 | O=C(NS(=O)(=O)/C=C/c1csc2ccccc12)c1ccc(C(F)(F)F)cc1C(F)(F)F [Example 2-29, (E)-2-Benzo[b]thiophen-3-yl-ethenesulfonic acid 2,4-ditrifluoromethyl-benzoylamide; sodium salt]
4.82 to 6.30 | O=C(NS(=O)(=O)/C=C/c1cccnc1)c1ccc(C(F)(F)F)cc1C(F)(F)F [Example 2-14, (E)-2-Pyridin-3-yl-ethenesulfonic acid 2,4-bis-trifluoromethyl-benzoylamide; sodium salt]
4.82 to 6.30 | O=C(NS(=O)(=O)/C=C/c1csc2ccccc12)c1ccc(F)cc1C(F)(F)F [Example 2-28, (E)-2-Benzo[b]thiophen-3-yl-ethenesulfonic acid 4-fluoro-2-trifluoromethyl-benzoylamide; sodium salt]
4.82 to 6.30 | Cc1cc(F)ccc1C(=O)NS(=O)(=O)/C=C/c1cccs1 [Example 5-1, (E)-2-Thiophen-2-yl-ethenesulfonic acid 4-fluoro-2-methyl-benzoylamide]
4.82 to 6.30 | Cc1ccc(C(=O)NS(=O)(=O)/C=C/c2cccnc2)c(C)c1 [Example 4-16, (E)-2-Pyridin-3-yl-ethenesulfonic acid 2,4-dimethyl-benzoylamide; sodium salt]
4.82 to 6.30 | O=C(NS(=O)(=O)/C=C/c1nccs1)c1ccc(Cl)cc1Cl [Example 2-22, (E)-2-Thiazol-2-yl-ethenesulfonic acid 2,4-dichloro-benzoylamide; sodium salt]
4.82 to 6.30 | O=C(NS(=O)(=O)/C=C/c1cccnc1)c1ccc(F)cc1C(F)(F)F [Example 2-9, (E)-2-Pyridin-3-yl-ethenesulfonic acid 4-fluoro-2-trifluoromethyl-benzoylamide; sodium salt]
4.82 to 6.30 | Cc1cccc(/C=C/S(=O)(=O)NC(=O)c2ccc(F)cc2Br)n1 [Example 4-15, (E)-2-(6-Methyl-pyridin-2-yl)-ethenesulfonic acid 2-bromo-4-fluoro-benzoylamide; sodium salt]
4.82 to 6.30 | Cc1ccc(C(=O)NS(=O)(=O)/C=C/c2ccsc2)c(Br)c1 [Example 3-7, (E)-2-Thiophen-3-yl-ethenesulfonic acid 2-bromo-4-methyl-benzoylamide; sodium salt]
4.82 to 6.30 | COc1cc(Cl)ccc1C(=O)NS(=O)(=O)/C=C/c1ccsc1 [Example 3-4, (E)-2-Thiophen-3-yl-ethenesulfonic acid 4-chloro-2-methoxy-benzoylamide; sodium salt]
4.82 to 6.30 | O=C(NS(=O)(=O)/C=C/c1cccnc1Cl)c1ccc(Cl)cc1Cl [Example 2-21, (E)-2-(2-Chloro-pyridin-3-yl)-ethenesulfonic acid 2,4-dichloro-benzoylamide; sodium salt]
4.82 to 6.30 | Cc1cccc(/C=C/S(=O)(=O)NC(=O)c2ccc(F)cc2Cl)n1 [Example 2-25, (E)-2-(6-Methyl-pyridin-2-yl)-ethenesulfonic acid 2-chloro-4-fluoro-benzoylamide; sodium salt]
4.82 to 6.30 | O=C(NS(=O)(=O)/C=C/c1ccsc1)c1ccc(C(F)(F)F)cc1C(F)(F)F [Example 1-6, (E)-2-Thiophen-3-yl-ethenesulfonic acid 2,4-bis-trifluoromethyl-benzoylamide; sodium salt]

pIC50 | SMILES
4.82 to 6.30 | Cc1noc(C)c1/C=C/S(=O)(=O)NC(=O)c1ccc(Cl)cc1Cl [Example 1-11, (E)-2-(3,5-Dimethyl-isoxazol-4-yl)-ethenesulfonic acid 2,4-dichloro-benzoylamide; sodium salt]
4.82 to 6.30 | O=C(NS(=O)(=O)/C=C/c1ccc(Cl)nc1)c1ccc(Cl)cc1Cl [Example 2-20, (E)-2-(6-Chloro-pyridin-3-yl)-ethenesulfonic acid 2,4-dichloro-benzoylamide; sodium salt]
4.82 to 6.30 | Cc1cc(Cl)ccc1C(=O)NS(=O)(=O)/C=C/c1cccnc1 [Example 4-8, (E)-2-Pyridin-3-yl-ethenesulfonic acid 4-chloro-2-methyl-benzoylamide; sodium salt]
4.82 to 6.30 | O=C(NS(=O)(=O)/C=C/c1ccsc1)c1ccc(F)cc1Cl [Example 1-3, (E)-2-Thiophen-3-yl-ethenesulfonic acid 2-chloro-4-fluoro-benzoylamide; sodium salt]
4.82 to 6.30 | O=C(NS(=O)(=O)/C=C/c1ccsc1)c1ccc(F)cc1Br [Example 3-9, (E)-2-Thiophen-3-yl-ethenesulfonic acid 2-bromo-4-fluoro-benzoylamide; sodium salt]
4.82 to 6.30 | O=C(NS(=O)(=O)/C=C/c1csc2ccccc12)c1ccc(F)cc1Cl [Example 2-26, (E)-2-Benzo[b]thiophen-3-yl-ethenesulfonic acid 2-chloro-4-fluoro-benzoylamide; sodium salt]
4.82 to 6.30 | O=C(NS(=O)(=O)/C=C/c1ccsc1)c1ccc(Br)cc1Cl [Example 3-11, (E)-2-Thiophen-3-yl-ethenesulfonic acid 4-bromo-2-chloro-benzoylamide; sodium salt]
4.82 to 6.30 | Cc1ccc(C(=O)NS(=O)(=O)/C=C/c2ccsc2)c(C)c1 [Example 3-14, (E)-2-Thiophen-3-yl-ethenesulfonic acid 2,4-dimethyl-benzoylamide; sodium salt]
4.82 to 6.30 | O=C(NS(=O)(=O)/C=C/c1ccccn1)c1ccc(Cl)cc1Cl [Example 2-2, (E)-2-Pyridin-2-yl-ethenesulfonic acid 2,4-dichloro-benzoylamide; sodium salt]
4.82 to 6.30 | O=C(NS(=O)(=O)/C=C/c1sccc1Br)c1ccc(Cl)cc1Cl [Example 2-24, (E)-2-(3-Bromo-thiophen-2-yl)-ethenesulfonic acid 2,4-dichloro-benzoylamide; sodium salt]
4.82 to 6.30 | Cc1ccsc1/C=C/S(=O)(=O)NC(=O)c1ccc(Cl)cc1Cl [Example 1-9, (E)-2-(3-Methyl-thiophen-2-yl)-ethenesulfonic acid 2,4-dichloro-benzoylamide]
4.82 to 6.30 | O=C(NS(=O)(=O)/C=C/c1ccccn1)c1ccc(F)cc1C(F)(F)F [Example 2-7, (E)-2-Pyridin-2-yl-ethenesulfonic acid 4-fluoro-2-trifluoromethyl-benzoylamide; sodium salt]
4.82 to 6.30 | O=C(NS(=O)(=O)/C=C/c1ccccn1)c1ccc(F)cc1Br [Example 4-6, (E)-2-Pyridin-2-yl-ethenesulfonic acid 2-bromo-4-fluoro-benzoylamide; sodium salt]
4.82 to 6.30 | COc1cc(Cl)ccc1C(=O)NS(=O)(=O)/C=C/c1cccs1 [Example 3-1, (E)-2-Thiophen-2-yl-ethenesulfonic acid 4-chloro-2-methoxy-benzoylamide; sodium salt]
4.82 to 6.30 | COc1ccc(/C=C/S(=O)(=O)NC(=O)c2ccc(Cl)cc2C)cn1 [Example 4-12, (E)-2-(6-Methoxy-pyridin-3-yl)-ethenesulfonic acid 4-chloro-2-methyl-benzoylamide; sodium salt]
4.82 to 6.30 | Cc1cc(Cl)ccc1C(=O)NS(=O)(=O)/C=C/c1csc2ccccc12 [Example 4-18, (E)-2-Benzo[b]thiophen-3-yl-ethenesulfonic acid 4-chloro-2-methyl-benzoylamide; sodium salt]

Source: patent publication US7208506B2, “Heteroarylethenyl derivatives, their manufacture and use as pharmaceutical agents” (Hoffmann-La Roche Inc., priority 2005, dated 2007)
